Where two headings read alike, the source gives them in different places.
Experiments:
Assay type in all cases: in vivo
[1] = system: Frankliniella occidentalis; test: Insecticidal activity, spray on pre-infested radish plants: Frankliniella occidentalis; conditions: for pest or weed control at 1 ppm / pest or weed control at 10 ppm / pest or weed control at 25 ppm: Frankliniella occidentalis, 144 h, read-out: fatality rate on Frankliniella occidentalis; for Fatality rate on Frankliniella occidentalis (%): Table 3
Method: (§1) For determination of insecticidal activity, the test method was as follows: a test solution with a desired concentration was prepared by dissolving a test compound sample in a suitable solvent (the kind of solvent was such as acetone, methanol, DMSO, etc., and was selected according to its dissolving ability for the sample). The test cell was composed of a small open container with 12-15 day old radish plants inside. The plants were pre-infested by placing 30-40 pests located on one leaf cut from the cultivated plant on one leaf of the test plant (leaf cutting method). As the leaves dehydrated, the pests moved on the test plants. After the pre-infesting, the soil of the test cells was covered with a layer of sand.
The test method was as follows: the test was repeated for three times, and after spraying the formulated test compound, each test unit was allowed to dry for 1 hour, and then a black mesh cover was placed at the top. The test units were kept in a growth chamber at 25° C. and 70% relative humidity for 6 days. The mortality (fatality rate) of the insects was then visually assessed for each test unit, and the fatality rate was calculated as follows:
[formula] (1) Test Results for the Control of Frankliniella occidentalis by Exemplary Example Compounds

Plutella xylostella = test: Insecticidal activity, spray on pre-infested radish plants: Plutella xylostella; conditions: for pest or weed control at 0.1 ppm / pest or weed control at 1 ppm / pest or weed control at 10 ppm: Plutella xylostella, 144 h, read-out: fatality rate on Plutella xylostella; for Fatality rate on Plutella xylostella (%): Table 3
Method: as §1
(§2) The test method was as follows: the test was repeated for three times, and after spraying the formulated test compound, each test unit was allowed to dry for 1 hour, and then a black mesh cover was placed at the top. The test units were kept in a growth chamber at 25° C. and 70% relative humidity for 6 days. The mortality (fatality rate) of the insects was then visually assessed for each test unit, and the fatality rate was calculated as follows: […]

Pieris rapae = test: Insecticidal activity, spray on pre-infested radish plants: Pieris rapae; conditions: 144 h, read-out: fatality rate on Pieris rapae
Method: as §1, §2

Mythimna separata = test: Insecticidal activity, spray on pre-infested radish plants: Mythimna separata; conditions: for pest or weed control at 0.1 ppm / pest or weed control at 1 ppm / pest or weed control at 10 ppm: Mythimna separata, 144 h, read-out: fatality rate on Mythimna separata; for Fatality rate on Mythimna separata (%): Table 3
Method: as §1, §2

Spodoptera litura = test: Insecticidal activity, spray on pre-infested radish plants: Spodoptera litura; conditions: 144 h, read-out: fatality rate on Spodoptera litura
Method: as §1, §2

Chilo suppressalis = test: Insecticidal activity, spray on pre-infested radish plants: Chilo suppressalis; conditions: for pest or weed control at 0.1 ppm / pest or weed control at 1 ppm / pest or weed control at 10 ppm: Chilo suppressalis, 144 h, read-out: fatality rate on Chilo suppressalis; for Fatality rate on Chilo suppressalis (%): Table 3
Method: as §1, §2

Cnaphalocrocis medinalis = test: Insecticidal activity, spray on pre-infested radish plants: Cnaphalocrocis medinalis; conditions: 144 h, read-out: fatality rate on Cnaphalocrocis medinalis
Method: as §1, §2

Tetranychus cinnabarinus = test: Acaricidal activity, slide immersion of female adult mites: Tetranychus cinnabarinus; conditions: read-out: fatality rate on Tetranychus cinnabarinus
Method: The test method was as follows: a test solution with a desired concentration was prepared by dissolving a test compound sample in a suitable solvent (the kind of solvent was such as acetone, methanol, DMSO, etc., and was selected according to its dissolving ability for the sample). A double-sided adhesive tape was cut into 2-3 cm long pieces, the pieces were attached to one end of a microscope slide, paper pieces on the adhesive tape were removed using tweezers, female adult mites which were consistent in size, bright in body color and lively in action were selected using a zero-size brush pen, the backs of the female adult mites were adhered to the double-sided adhesive tape (note: the adhesion should not cover mite feet, mite whiskers and mouthparts), with 4 rows of mites adhered to each piece and 10 heads of the mites adhered to each row.
One end of the glass slide with the mites was immersed into a drug liquid, with slightly shaking for 5 seconds, and then the slide was taken out. The excess drug liquid around the mite body and is surroundings is quickly sucked off using absorbent paper. The slide was placed in the biochemical incubator described above, and the results were checked by using binoculars after 24 hours. The mites were slightly touched by using a brush pen, the mites with immobility in feet were considered to be dead, and the fatality rate was calculated. The fatality rate was calculated as follows: […]

Cc1cc(C2=NOC(c3cc(Cl)c(F)c(Cl)c3)(C(F)(F)F)C2)ccc1C(=O)NCc1ncccc1Cl (stereo not drawn) [Compound 13]
pest or weed control at 1 ppm [1]: > 80% | pest or weed control at 10 ppm [1]: > 80% | pest or weed control at 25 ppm [1]: > 80% | pest or weed control at 0.1 ppm (Plutella xylostella): > 80% | pest or weed control at 1 ppm (Plutella xylostella): > 80% | pest or weed control at 10 ppm (Plutella xylostella): > 80% | pest or weed control at 0.1 ppm (Pieris rapae): > 80% | pest or weed control at 1 ppm (Pieris rapae): > 80% | pest or weed control at 10 ppm (Pieris rapae): > 80% | pest or weed control at 0.1 ppm (Mythimna separata): > 80% | pest or weed control at 1 ppm (Mythimna separata): > 80% | pest or weed control at 10 ppm (Mythimna separata): > 80% | pest or weed control at 0.1 ppm (Spodoptera litura): > 80% | pest or weed control at 1 ppm (Spodoptera litura): > 80% | pest or weed control at 10 ppm (Spodoptera litura): > 80% | pest or weed control at 0.1 ppm (Chilo suppressalis): > 80% | pest or weed control at 1 ppm (Chilo suppressalis): > 80% | pest or weed control at 10 ppm (Chilo suppressalis): > 80% | pest or weed control at 0.1 ppm (Cnaphalocrocis medinalis): > 80% | pest or weed control at 1 ppm (Cnaphalocrocis medinalis): > 80% | pest or weed control at 10 ppm (Cnaphalocrocis medinalis): > 80% | pest or weed control at 1 ppm (Tetranychus cinnabarinus; 24 h): > 80% | pest or weed control at 10 ppm (Tetranychus cinnabarinus; 24 h): > 80% | pest or weed control at 25 ppm (Tetranychus cinnabarinus; 24 h): > 80%

Cc1cc(C2=NOC(c3cc(F)c(F)c(F)c3)(C(F)(F)F)C2)ccc1C(=O)NCCc1ccc(Cl)nc1 (stereo not drawn) [Compound 16]
pest or weed control at 1 ppm ([1]; dose 1 ppm, spray, 6 days): > 80% | pest or weed control at 10 ppm ([1]; dose 10 ppm, spray, 6 days): > 80% | pest or weed control at 25 ppm ([1]; dose 25 ppm, spray, 6 days): > 80% | pest or weed control at 0.1 ppm (Plutella xylostella; dose 0.1 ppm, spray, 6 days): > 80% | pest or weed control at 1 ppm (Plutella xylostella; dose 1 ppm, spray, 6 days): > 80% | pest or weed control at 10 ppm (Plutella xylostella; dose 10 ppm, spray, 6 days): > 80% | pest or weed control at 0.1 ppm (Pieris rapae; dose 0.1 ppm, spray, 6 days): > 80% | pest or weed control at 1 ppm (Pieris rapae; dose 1 ppm, spray, 6 days): > 80% | pest or weed control at 10 ppm (Pieris rapae; dose 10 ppm, spray, 6 days): > 80% | pest or weed control at 0.1 ppm (Mythimna separata; dose 0.1 ppm, spray, 6 days): > 80% | pest or weed control at 1 ppm (Mythimna separata; dose 1 ppm, spray, 6 days): > 80% | pest or weed control at 10 ppm (Mythimna separata; dose 10 ppm, spray, 6 days): > 80% | pest or weed control at 0.1 ppm (Spodoptera litura; dose 0.1 ppm, spray, 6 days): > 80% | pest or weed control at 1 ppm (Spodoptera litura; dose 1 ppm, spray, 6 days): > 80% | pest or weed control at 10 ppm (Spodoptera litura; dose 10 ppm, spray, 6 days): > 80% | pest or weed control at 0.1 ppm (Chilo suppressalis; dose 0.1 ppm, spray, 6 days): > 80% | pest or weed control at 1 ppm (Chilo suppressalis; dose 1 ppm, spray, 6 days): > 80% | pest or weed control at 10 ppm (Chilo suppressalis; dose 10 ppm, spray, 6 days): > 80% | pest or weed control at 0.1 ppm (Cnaphalocrocis medinalis; dose 0.1 ppm, spray, 6 days): > 80% | pest or weed control at 1 ppm (Cnaphalocrocis medinalis; dose 1 ppm, spray, 6 days): > 80% | pest or weed control at 10 ppm (Cnaphalocrocis medinalis; dose 10 ppm, spray, 6 days): > 80% | pest or weed control at 1 ppm (Tetranychus cinnabarinus; dose 1 ppm, immersion 5 seconds, checked after 24 hours): > 80% | pest or weed control at 10 ppm (Tetranychus cinnabarinus; dose 10 ppm, immersion 5 seconds, checked after 24 hours): > 80% | pest or weed control at 25 ppm (Tetranychus cinnabarinus; dose 25 ppm, immersion 5 seconds, checked after 24 hours): > 80%

Cc1cc(C2=NOC(c3cc(Cl)cc(Cl)c3)(C(F)(F)F)C2)ccc1C(=O)NCc1ccc(Cl)nc1 (stereo not drawn) [CK1, reference compound]
Fatality rate on Frankliniella occidentalis (%) ([1]; 1 ppm): 0% | Fatality rate on Frankliniella occidentalis (%) ([1]; 10 ppm): 40% | Fatality rate on Frankliniella occidentalis (%) ([1]; 25 ppm): 80% | Fatality rate on Plutella xylostella (%) (Plutella xylostella; 0.1 ppm): 15% | Fatality rate on Plutella xylostella (%) (Plutella xylostella; 1 ppm): 80% | Fatality rate on Plutella xylostella (%) (Plutella xylostella; 10 ppm): 100% | Fatality rate on Mythimna separata (%) (Mythimna separata; 0.1 ppm): 10% | Fatality rate on Mythimna separata (%) (Mythimna separata; 1 ppm): 80% | Fatality rate on Mythimna separata (%) (Mythimna separata; 10 ppm): 100% | Fatality rate on Chilo suppressalis (%) (Chilo suppressalis; 0.1 ppm): 0% | Fatality rate on Chilo suppressalis (%) (Chilo suppressalis; 1 ppm): 50% | Fatality rate on Chilo suppressalis (%) (Chilo suppressalis; 10 ppm): 100%
